The values that follow come from US4863898A, “Amino acid chelated compositions for delivery to specific biological tissue sites” (priority 1986, dated 1989).

Like-named read-outs stand apart in the source and are kept apart here.

Data set [1] in a line: stability constant of amino acid chelate. It counts as physicochemical. The text has this:
The determination of stability constants of amino acid chelates is well documented in U.S. Pat. No. 4,167,564 and the means by which amino acid chelates may be formulated to provide optimal stability constants within the required ranges are disclosed in U.S. Pat. Nos. 4,176,564 and 4,172,072.

The nature of data set [2]: radioactive zinc in male sex tissues after intravenous dosage (Example II). Conditions: rats, intravenous 0.06 mg zinc, 24 hours post treatment, group average. The protocol: Three groups of rats, six in each group, weighing 250 gms±10 gms. were given an intravenous dosage, of 0.06 mg zinc containing 10 microcuries of radioactive zinc.
Each rat was sacrificed 24 hours post treatment and the testes, epididymis, and seminal visicle of each were exposed, excised and a determination was made of the amount of radioactive zinc in each.

A short description of data set [3]: radioactive zinc in tissues after injection into the jugular vein (Example IV). It counts as in vivo. The following applies: rats, two hours post injection, group mean. The protocol:
The method of Example III was again utilized except that the manganese was replaced by zinc. […] The same dosage as in Example III was administered. Only six rats were utilized for this experiment, three in each group, and they were sacrificed two hours post injection into the jugular vein. Six tissues, i.e. brain, skeletal muscle, liver, hypothalamus, pituitary and uterus were analyzed for radioactive zinc with the following mean results for each group reported in terms of cc/min/mg of tissue.

Details of data set [4]: species or system rats. The following applies: rat, in vivo. The text has this:
Leucine was used as the ligand and zinc as the metal. Composition A is therefore a mixture, or at best a complex consisting of one mole of leucine (mole weight 131.17) and one more of zinc chloride. […] Composition B consisted of two moles of leucine admixed with one mole of zinc chloride to form a mixture. […] Composition A contained leucine equivalent to 10 microliters of 0.76M. leucine and was adjusted to pH 9 with 20 microliters of 0.05 N NaOH. Composition B contained leucine equivalent to 20 microliters of 0.76M. leucine containing 20 microliters distilled water in lieu of pH adjustment. The pH of this solution was about 3. Composition C contained the same ingredients as Composition B except in chelated form and the pH was adjusted to 9 with 20 microliters of 0.13M Na2 CO3. The procedure of Example lI was fo lowed using three rats in each group. Upon sacrificing, blood was drawn and certain tissues excised to determine the amount of radioactive zinc which had migrated to the blood and tissues two hours post injection.

For data set [5] the following is noted: female rats, intravenous 0.06 mg Ca, after two hours. The procedure:
Six female rats, weighing 250 gms.±10 gms., were divided into two groups. All rats were anethetized with 0.15 mls sodium phenobarbital USP. […] To the other three, the same amount of calcium was administered in the form a calcium chloride.
After two hours, all of he rats were sacrificed and the hypothalamus was removed and read for radioactivity.

As to zinc-arginine chelate [GROUP I], the stability constant in data set [1] is reported as 10^7.
On to `[Cl-].[Cl-].[Zn+2]` [Zinc Chloride, zinc chloride], for which, in data set [2], the “radioactive zinc in Epididymis” value was “Negligible”, the “radioactive zinc in Seminal Vesicle” value is listed as “Negligible” and the “radioactive zinc in Testes” value is reported as “Negligible”. In data set [3], the “radioactive zinc in Brain” value came to 5.1 cc/min/mg, the “radioactive zinc in Hypothalamus” value turned out to be 3.0 cc/min/mg, the “radioactive zinc in Liver” value is reported as 94.2 cc/min/mg and the “radioactive zinc in Pituitary” value was found to be 17.0 cc/min/mg. For the same compound, in data set [3], the “radioactive zinc in Skeletal Muscle” value is reported as 5.2 cc/min/mg and the “radioactive zinc in Uterus” value amounted to 14.0 cc/min/mg.
Regarding `CC(C)C[C@H](N)C(=O)[O-].CC(C)C[C@H](N)C(=O)[O-].[Zn+2]` [Comp. C, zinc-leucine amino acid chelate], in data set [4], the “radioactive zinc in Blood” value was found to be 1.64 cc/min/mg, the “radioactive zinc in Heart” value is 6.32 cc/min/mg, the “radioactive zinc in Kidney” value worked out at 8.55 cc/min/mg and the “radioactive zinc in Liver” value was found to be 8.65 cc/min/mg. In addition, in data set [4], the “radioactive zinc in Muscle” value is listed as 3.88 cc/min/mg; the “radioactive zinc, Total of blood and tissues” value was 31.45 cc/min/mg.
For the compound `NCC(=O)[O-].NCC(=O)[O-].[Zn+2]` [GROUP II, zinc-glycine chelate], the stability constant in data set [1] was 10^7.
Regarding `[Ca+2].[Cl-].[Cl-]` [inorganic calcium, calcium chloride], the “radioactivity in hypothalamus, mean corrected counts per minute per milligram of tissue” value in data set [5] came out at 67.1±8.4 cc/min/mg.
